{"source": "patent US8759513B2", "about": "“Polymorphic form of rifaximin and process for its preparation” (Sequent Scientific Limited, priority 2011, dated 2014)", "assay": "Stability of amorphous rifaximin on storage, followed by PXRD spectroscopy", "type": "physicochemical", "details": "as indicated by the PXRD spectroscopy", "data": [{"smiles": "CO[C@H]1/C=C/O[C@@]2(C)Oc3c(C)c(O)c4c(O)c(c5c(nc6cc(C)ccn65)c4c3C2=O)NC(=O)/C(C)=C\\C=C\\[C@H](C)[C@H](O)[C@@H](C)[C@@H](O)[C@@H](C)[C@H](OC(C)=O)[C@@H]1C", "note": "[amorphous rifaximin, (2S,16Z,18E,20S,21S,22R,23R,24R,25S,26S,27S,28E)-5,6,21,23,25-pentahydroxy-27-methoxy-2,4,11,16,20,22,24,26-octamethyl-2,7-(epoxypentadeca-[1,11,13]trienimino)benzofuro[4,5-e]pyrido[1,2-α]-benzimidazole-1,15(2H)-dione, 25-acetate]", "values": [{"measurement": "effect of external parameters such as ambient humidity", "setting": "ambient humidity", "value": "unaffected"}, {"measurement": "chemical and polymorphic stability on storage", "setting": "on storage", "value": "very stable chemically and polymorphically on storage"}]}]}
